{"source": "patent US4100346A", "about": "“Certain 7(o-amino-methyl- or methylaminomethylphenyl- or cyclohexadienyl- or thienylacetamide)-3[1-carboxymethyl-(or ethyl- or propyl-)-tetrazol-5-ylthiomethyl]-3-cephem-4-carboxylic acids” (Bristol-Myers Company, priority 1976, dated 1978)", "system": "Mycobacterium tuberculosis", "assay_type": "cell-based", "note": "“And” between values parts separate entries of the source, which are not always exact repeats. Identical values can stand only once.", "data": [{"compound": "Cc1nnc(SCC2=C(C(=O)O)N3C(=O)[C@@H](NC(=O)Cn4cnnn4)[C@H]3SC2)s1", "note": "[Cefazolin]", "values": [{"measurement": "Minimum inhibitory concentration", "result": "125 µg/mL and 250 µg/mL"}]}, {"compound": "O=C(Cc1cccs1)N[C@@H]1C(=O)N2C(C(=O)[O-])=C(C[n+]3ccccc3)CS[C@H]12", "note": "[Cephaloridine]", "values": [{"measurement": "Minimum inhibitory concentration", "result": 63, "unit": "µg/mL"}]}]}
